Reference: ChEMBL document CHEMBL4270502, “From bench (laboratory) to bed (hospital/home): How to explore effective natural and synthetic PAK1-blockers/longevity-promoters for cancer therapy” (Eur J Med Chem, 2017)

What was measured:
[1] = tested on: A549; assay: Growth inhibition of human A549 cells; type: functional, cell-based
[2] = tested on: Caenorhabditis elegans; assay: Increase in lifespan of Caenorhabditis elegans; type: functional
[3] = tested on: Caenorhabditis elegans; assay: Increase in lifespan of Caenorhabditis elegans N2 CGCb under 2 mM H2O2-induced oxidative stress conditions at 1 to 50 mg/L; type: functional
[4] = tested on: Mus musculus; assay: Increase in lifespan of C57BL/6J mouse at 2 mg/kg/day dosed in drinking water; type: functional; conditions: feed or water
[5] = biological target: T1, Serine/threonine-protein kinase PAK 1 (Homo sapiens, UniProt Q13153); assay: Inhibition of PAK1 (unknown origin)
T1 sequence (Q13153 whole entry): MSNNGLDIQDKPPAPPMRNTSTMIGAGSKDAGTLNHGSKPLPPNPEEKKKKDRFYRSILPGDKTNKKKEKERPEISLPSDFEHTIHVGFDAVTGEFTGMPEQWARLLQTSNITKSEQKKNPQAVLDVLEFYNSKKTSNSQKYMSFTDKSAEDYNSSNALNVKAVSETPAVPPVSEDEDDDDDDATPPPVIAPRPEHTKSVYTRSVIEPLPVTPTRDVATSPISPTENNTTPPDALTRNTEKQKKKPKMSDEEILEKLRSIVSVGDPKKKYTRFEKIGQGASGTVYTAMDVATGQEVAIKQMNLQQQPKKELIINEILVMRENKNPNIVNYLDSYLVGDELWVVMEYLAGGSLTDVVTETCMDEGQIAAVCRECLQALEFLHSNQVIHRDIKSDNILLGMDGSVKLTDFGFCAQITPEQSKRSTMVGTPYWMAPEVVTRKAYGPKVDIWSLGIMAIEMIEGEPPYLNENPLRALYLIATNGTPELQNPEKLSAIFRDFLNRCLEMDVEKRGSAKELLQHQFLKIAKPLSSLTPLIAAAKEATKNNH

[6] = biological target: Mitogen-activated protein kinase kinase kinase 11 (Homo sapiens, UniProt Q16584); assay: Inhibition of flag-tagged MLK3 (unknown origin) expressed in human HeLa cells assessed as reduction in enzyme autophosphorylation incubated for 20 mins by immunoprecipitatation; type: cell-based
Chain of Mitogen-activated protein kinase kinase kinase 11 (Q16584 whole entry): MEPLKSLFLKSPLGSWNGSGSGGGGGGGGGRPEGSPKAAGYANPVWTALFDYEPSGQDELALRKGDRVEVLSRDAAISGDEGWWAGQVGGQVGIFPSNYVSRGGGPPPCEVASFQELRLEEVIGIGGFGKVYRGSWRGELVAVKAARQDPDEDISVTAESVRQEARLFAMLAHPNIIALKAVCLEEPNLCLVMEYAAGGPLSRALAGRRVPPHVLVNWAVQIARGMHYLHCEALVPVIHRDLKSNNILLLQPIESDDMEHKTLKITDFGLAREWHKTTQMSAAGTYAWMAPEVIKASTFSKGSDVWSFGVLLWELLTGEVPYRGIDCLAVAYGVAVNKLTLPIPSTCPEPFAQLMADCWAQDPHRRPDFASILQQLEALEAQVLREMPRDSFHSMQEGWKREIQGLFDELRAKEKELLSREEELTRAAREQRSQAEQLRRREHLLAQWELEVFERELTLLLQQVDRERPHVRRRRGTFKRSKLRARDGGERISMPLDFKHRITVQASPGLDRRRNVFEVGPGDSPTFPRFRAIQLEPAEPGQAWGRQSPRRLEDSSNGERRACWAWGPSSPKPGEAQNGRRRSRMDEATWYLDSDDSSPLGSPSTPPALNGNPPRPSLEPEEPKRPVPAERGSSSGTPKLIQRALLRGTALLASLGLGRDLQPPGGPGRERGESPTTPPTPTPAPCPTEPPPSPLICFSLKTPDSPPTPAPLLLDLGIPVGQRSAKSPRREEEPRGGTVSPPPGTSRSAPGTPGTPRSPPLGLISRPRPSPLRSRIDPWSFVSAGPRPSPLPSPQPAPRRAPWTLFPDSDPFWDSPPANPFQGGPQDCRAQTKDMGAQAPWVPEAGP

[7] = biological target: T2, Serine/threonine-protein kinase PAK 1 (Mus musculus, UniProt O88643); assay: Inhibition of PAK1 in v-Ha-RAS-transformed mouse NIH/3T3 cells incubated for 1 hr by immunoblot analysis
T2 sequence (O88643 whole entry): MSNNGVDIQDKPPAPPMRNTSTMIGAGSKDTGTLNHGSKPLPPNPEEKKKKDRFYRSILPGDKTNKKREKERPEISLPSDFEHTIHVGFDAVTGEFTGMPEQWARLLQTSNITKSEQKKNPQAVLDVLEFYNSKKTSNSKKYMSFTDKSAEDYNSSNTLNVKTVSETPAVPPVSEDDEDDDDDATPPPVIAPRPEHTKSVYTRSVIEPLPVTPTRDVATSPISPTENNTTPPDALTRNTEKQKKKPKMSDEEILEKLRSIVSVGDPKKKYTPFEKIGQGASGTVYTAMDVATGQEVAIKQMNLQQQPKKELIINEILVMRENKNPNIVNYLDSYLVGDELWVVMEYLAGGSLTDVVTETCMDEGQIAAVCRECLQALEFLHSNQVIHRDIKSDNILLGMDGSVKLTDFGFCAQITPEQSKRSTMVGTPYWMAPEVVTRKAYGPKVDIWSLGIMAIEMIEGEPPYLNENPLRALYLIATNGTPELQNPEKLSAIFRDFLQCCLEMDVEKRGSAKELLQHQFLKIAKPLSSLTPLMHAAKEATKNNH

[8] = tested on: A549; assay: Growth inhibition of RAS-transformed human A549 cells; type: functional, cell-based
[9] = biological target: Protein kinase C (PKC); assay: Inhibition of rat brain PKC using […] derived peptide substrate
[10] = biological target: Serine/threonine-protein kinase PAK 3 (Homo sapiens, UniProt O75914); assay: Inhibition of GST-tagged PAK3 (unknown origin) expressed in Escherichia coli using peptide PC9 substrate
Chain of Serine/threonine-protein kinase PAK 3 (O75914 whole entry): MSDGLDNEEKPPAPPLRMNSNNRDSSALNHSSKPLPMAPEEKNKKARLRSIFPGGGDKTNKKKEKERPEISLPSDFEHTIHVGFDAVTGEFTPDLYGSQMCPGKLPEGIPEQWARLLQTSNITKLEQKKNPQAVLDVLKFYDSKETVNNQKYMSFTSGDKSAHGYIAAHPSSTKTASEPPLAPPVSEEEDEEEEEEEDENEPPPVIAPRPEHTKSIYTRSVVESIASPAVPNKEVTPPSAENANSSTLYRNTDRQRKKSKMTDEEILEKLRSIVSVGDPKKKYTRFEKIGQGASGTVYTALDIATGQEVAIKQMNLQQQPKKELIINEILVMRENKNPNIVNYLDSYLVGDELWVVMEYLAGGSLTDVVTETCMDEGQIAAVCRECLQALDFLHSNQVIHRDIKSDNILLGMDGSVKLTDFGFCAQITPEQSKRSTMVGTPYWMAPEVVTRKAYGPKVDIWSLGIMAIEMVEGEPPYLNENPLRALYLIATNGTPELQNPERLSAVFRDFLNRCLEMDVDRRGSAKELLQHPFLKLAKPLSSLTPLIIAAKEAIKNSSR

[11] = biological target: T1, Serine/threonine-protein kinase PAK 1; assay: Inhibition of HA-PAK1 (unknown origin) using histone H4 substrate and [gamma-32P] ATP by autoradiography
[12] = tested on: Caenorhabditis elegans; assay: Increase in lifespan of Caenorhabditis elegans age-1(hx546) at 40 uM; type: functional
[13] = tested on: Caenorhabditis elegans; assay: Increase in lifespan of Caenorhabditis elegans N2 var. Bristol at 40 uM; type: functional
[14] = biological target: T1, Serine/threonine-protein kinase PAK 1; assay: Inhibition of PAK1 (unknown origin) by cell culture based assay
[15] = Growth stimulation of HFDPC assessed as increase in cell viability incubated for 3 days by MTT assay; type: functional, Homo sapiens
[16] = biological target: T1, Serine/threonine-protein kinase PAK 1; assay: Inhibition of PAK1 in human MCF7 cells transfected with constitutively active NH2-terminally truncated C1199 Tiam1 construct; type: cell-based
[17] = biological target: T2, Serine/threonine-protein kinase PAK 1; assay: Inhibition of PAK1 in v-Ha-RAS-transformed mouse NIH/3T3 cells incubated for 48 hrs by immunoblot analysis
[18] = biological target: T1, Serine/threonine-protein kinase PAK 1; assay: Inhibition of PAK1 in estrogen-stimulated human MCF7 cells incubated for 48 hrs by immunoblot analysis; type: cell-based
[19] = biological target: T1, Serine/threonine-protein kinase PAK 1; assay: Inhibition of recombinant human PAK1 by ADP-Glo kinase assay
[20] = Stability assessed as shelf life at 4 degC; type: physicochemical
[21] = biological target: T1, Serine/threonine-protein kinase PAK 1; assay: Inhibition of PAK1 in human A549 cells; type: cell-based
[22] = tested on: PC-3; assay: Antitumor activity against human PC3 cells wenografted in mouse assessed as inhibition of tumor growth at 3 mg/kg/day; type: functional; conditions: read-out: TGI
[23] = Cytotoxicity in human M8 cells by MTT assay; type: functional, cell-based
[24] = Potency index, ratio of IC50 for caffeic acid to IC50 for test compound for cytotoxicity in human M8 cells by MTT assay; type: functional
[25] = tested on: Caenorhabditis elegans; assay: Increase in lifespan of Caenorhabditis elegans N2 at 100 uM; type: functional

## CC(C)(C)c1cc(/C=C(\C#N)C(N)=S)cc(C(C)(C)C)c1O [TYRPHOSTIN AG 879]
[1]
  IC50: 0.005 µM

## COc1cc(/C=C/C(=O)CC(=O)/C=C/c2ccc(O)c(OC)c2)ccc1O [CURCUMIN]
[1]
  IC50: 23 µM

## COc1ccc2[nH]cc(CCNC(C)=O)c2c1 [MELATONIN]
[1]
  IC50: 1300 µM

## CC(C)[C@]12O[C@H]1[C@@H]1O[C@]13[C@]1(O[C@H]1C[C@H]1C4=C(CC[C@@]13C)C(=O)OC4)[C@@H]2O [TRIPTOLIDE]
[2]
  ILS: 20%
[1]
  IC50: 0.03 µM
[3]
  ILS: 20%

## COc1ccccc1-n1cc(COC(=O)C2CCn3c(C(=O)c4ccccc4)ccc32)nn1 (stereo not given)
[2]
  ILS: 30%

## CC(=O)CCC=C(C)CCC=C(C)CCC=C(C)CCC=C(C)C
[1]
  IC50: 10 µM

## COc1ccccc1-n1cc(COC(=O)[C@]23CC[C@@H](C)[C@H](C)[C@H]2C2=CC[C@@H]4[C@@]5(C)CC[C@H](O)C(C)(C)[C@@H]5CC[C@@]4(C)[C@]2(C)CC3)nn1
[1]
  IC50: 0.1 µM

## C[C@H](CCCCC(=O)O)O[C@@H]1O[C@@H](C)[C@H](O)C[C@H]1O [DAUMONE]
[4]
  ILS at 2 mg/kg/day: 50%
[1]
  IC50: 0.02 µM

## Oc1ccc2ccccc2c1SSc1c(O)ccc2ccccc12
[1]
  IC50: 30 µM
[5]
  IC50: 1 µM

## CCSCc1ccc2c(c1)c1c3c(c4c5cc(CSCC)ccc5n5c4c1n2C1C[C@](O)(C(=O)OC)[C@]5(C)O1)CNC3=O
[6]
  IC50: 0.02 µM
[7]
  IC50: 1 µM
[8]
  IC50: 1 µM
[1]
  IC50: 1 µM

## CN[C@@H]1C[C@H]2O[C@@](C)([C@@H]1OC)n1c3ccc(O)cc3c3c4c(c5c6cc(O)ccc6n2c5c31)C(=O)NC4
[9]
  IC50: 0.001 µM
[10]
  IC50: 0.001 µM

## CCCCCC(=O)c1c(O)cc(OC)c(Cl)c1O
[11]
  IC50: 2.5 µM
[1]
  IC50: 2 to 3 µM

## CC1=C(/C=C/C(C)=C/C=C/C(C)=C/C=C/C=C(C)/C=C/C=C(C)/C=C/C2=C(C)C(=O)C(O)CC2(C)C)C(C)(C)CC(O)C1=O (stereo not given)
[12]
  Activity: 16 - 30%
[1]
  IC50: 40 µM
[13]
  Activity: 16 - 30%

## CCS(=O)(=O)c1cc(Nc2ncc(F)c(N(Cc3ccccc3C#N)c3cc(CO)ccc3C)n2)ccc1N1CCN(C)CC1
[1]
  IC50: 0.06 µM

## CC(C)=CCc1cc(/C=C/C(=O)O)cc(CC=C(C)C)c1O [ARTEPILLIN]
[14]
  IC50: 25 µM
[15]
  ED: 20 µM
[1]
  IC50: 25 µM

## Cc1ccc(-c2nn(C(C)(C)C)c3ncnc(N)c23)cc1
[1]
  IC50: 0.01 µM

## COc1ccccc1-n1cc(COC(=O)/C=C/c2ccc(O)c(O)c2)nn1
[1]
  IC50: 0.225 µM

## Cc1cc(C)cc(NC(=N)Nc2ccccc2C(F)(F)F)c1
[16]
  IC50: 4 µM

## CNc1ncc2cc(-c3ccc(-c4cccc(C)n4)cc3Cl)c(=O)n(C[C@H]3OC[C@H](N)CO3)c2n1
[1]
  IC50: > 1 µM

## CC(C)NC(=O)N1CC[C@H](NC2=Nc3cc(F)ccc3N(CC(F)F)c3ccc(Cl)cc32)C1
[1]
  IC50: 0.25 µM

## CC(C)(C)c1cc(/C=C(\C#N)C(=S)NCCCCCCN)cc(C(C)(C)C)c1O
[1]
  IC50: 0.005 µM

## C/C=C1\NC(=O)[C@H]2CSSCC/C=C/[C@H](CC(=O)N[C@H](C(C)C)C(=O)N2)OC(=O)[C@H](C(C)C)NC1=O [ROMIDEPSIN]
[17]
  IC50: < 0.001 µM
[18]
  IC50: < 0.001 µM

## CC(C)(O)/C=C/C(=O)[C@](C)(O)[C@H]1[C@H](O)C[C@@]2(C)[C@@H]3CC=C4[C@@H](C=C(O)C(=O)C4(C)C)[C@]3(C)C(=O)C[C@]12C [CUCURBITACIN I]
[1]
  IC50: 0.14 µM

## COc1c(C)c2c(c(O)c1C/C=C(\C)CCC(=O)OCCN1CCOCC1)C(=O)OC2 [MYCOPHENOLATE MOFETIL]
[1]
  IC50: 0.05 to 0.5 µM

## CO[C@@H]1[C@@H](O)[C@H](O[C@@H]2[C@@H](O)[C@H](O[C@H]3[C@H](O)[C@@H](O[C@@H]4OC[C@@H](O)[C@H](O)[C@H]4O)[C@H](O[C@H]4[C@H](O[C@H]5CC[C@]6(C)[C@@H]7CCC89C(=O)O[C@@](C)(CCCC(C)C)[C@H]8[C@@H](OC(C)=O)C[C@@]9(C)C7=CC[C@H]6C5(C)C)OC[C@@H](OS(=O)(=O)O)[C@@H]4O)O[C@@H]3C)OC[C@H]2O)O[C@H](CO)[C@H]1O (stereo not given in full)
[19]
  IC50: 1 µM
[8]
  IC50: 1 µM
[1]
  IC50: 0.6 to 1.5 µM

## CC(C)[C@]12O[C@H]1[C@@H]1O[C@]13[C@]1(O[C@H]1C[C@H]1C4=C(CC[C@@]13C)C(=O)OC4)[C@@H]2OCOP(=O)([O-])[O-].[Na+].[Na+] [MINNELIDE]
[20]
  Stability: 2 yr

## CC(C)=CCC/C(C)=C/Cc1c([C@@H]2CC(=O)c3c(O)cc(O)cc3O2)ccc(O)c1O [NYMPHAEOL B]
[1]
  IC50: 4 to 7 µM

## COCCn1c2c([n+](Cc3cnccn3)c1C)C(=O)c1ccccc1C2=O [SEPANTRONIUM BROMIDE]
[21]
  IC50: 0.5 µM
[1]
  IC50: 0.0134 µM
[22]
  inhibition in vivo at 3 mg/kg/day: > 50%

## CC(C)=CCC/C(C)=C/Cc1c([C@@H]2CC(=O)c3c(cc(O)c(CC=C(C)C)c3O)O2)ccc(O)c1O [NYMPHAEOL C]
[1]
  IC50: 4 to 7 µM

## CC(C)=CCC/C(C)=C/Cc1c(O)cc2c(c1O)C(=O)C[C@@H](c1ccc(O)c(O)c1)O2 [NYMPHAEOL A]
[1]
  IC50: 4 to 7 µM

## Oc1ccc(/C=C/c2cc(O)cc(O)c2)cc1 [RESVERATROL]
[19]
  IC50: 15 µM
[1]
  IC50: 30 µM

## O=C(O)/C=C/c1ccc(O)c(O)c1 [CAFFEIC ACID]
[23]
  IC50: 100 µM

## O=C(/C=C/c1ccc(O)c(O)c1)OCCc1ccccc1 [CAFFEIC ACID PHENETHYL ESTER]
[24]
  Ratio IC50: 10
[23]
  IC50: 10 µM
[1]
  IC50: 10 µM
[25]
  Activity: 15%
